Test results reported in patent publication EP1082127B1 (WARNER-LAMBERT COMPANY LLC, priority 1998, dated 1999).
Structures can show the parent of a compound that is named as a salt.

Legend:
[1] = system: IL-1β production in human peripheral blood mononuclear cells (PBMCs); test: PBMC Cellular Assay - IC50 Determinations (LPS-stimulated IL-1β production, ELISA); assay type: cell-based; conditions: human PBMCs stimulated overnight with 10 ng/mL LPS, mature IL-1β by ELISA
Source text: Further evidence that compounds of Formula I are inhibitors of ICE is provided by their ability to inhibit IL-1β production in human peripheral blood mononuclear cells (PBMCs) as described herein. PBMCs are isolated from heparinized blood by centrifugation over a ficoll cushion, then washed three times with phosphate-buffered saline. PBMCs are suspended in a medium containing RPMI 1640 with glutamine, penicillin, streptomycin, and 2% human AB serum, then plated at 10^6 cells per well in 96-well flat bottom plates. PBMCs are stimulated overnight with 10 ng/mL of lipopolysaccharide (LPS, E. coli strain 0111:B4; Calbiochem) in the presence or absence of a compound of Formula I. Medium is harvested, and the level of mature IL-1β was determined using an ELISA kit from R&D Systems. Cells were cultured for an additional 4 hours in the presence of 3-(4,5-dimethylthiazol-2-yl)-2,5-diphenyltetrazolium bromide (MTT) to determine viability.

ICE [2] = molecular target: T1, ICE (Homo sapiens, UniProt P29466); test: ICE Colorimetric Dose-Response (IC50) Assay; assay type: biochemical; conditions: 60 minutes preincubation, 50 µM Ac-Tyr-Val-Ala-Asp-pNA, 25°C
T1 sequence (P29466 120-297 limits assumed): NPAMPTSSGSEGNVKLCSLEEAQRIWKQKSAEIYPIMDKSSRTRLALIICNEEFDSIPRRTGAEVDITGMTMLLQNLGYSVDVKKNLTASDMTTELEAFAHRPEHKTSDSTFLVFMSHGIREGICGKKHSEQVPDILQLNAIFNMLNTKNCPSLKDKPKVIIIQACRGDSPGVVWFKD
T1 sequence (P29466 317-404 limits assumed): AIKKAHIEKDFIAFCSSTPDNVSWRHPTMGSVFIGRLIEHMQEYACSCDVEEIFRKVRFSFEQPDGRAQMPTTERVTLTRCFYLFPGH
Protocol: (§1) Diluted inhibitor stocks are prepared by two-fold serial dilution from a primary stock whose concentration is selected (based on screening results or on prior attempts at IC50 evaluation) to achieve approximately 95% inhibition in the most concentrated well. Aliquots of each dilution are transferred to a microtitre plate in triplicate.
(§2) ICE enzyme is diluted to approximately 24 nM in HGE buffer (100 mM Hepes pH 7.5, 0.5 mM EDTA, 20% glycerol, 0.1% Bovine Serum Albumin (BSA), and activated by adding dithiothreitol (DTT) to a final concentration of 5 mM. The activated enzyme is then aliquoted into wells containing inhibitor or vehicle, and the plate is preincubated for 60 minutes at ambient temperature. Substrate (Ac-Tyr-Val-Ala-Asp-pNA) is added to each well to a final concentration of 50 µM, and plates are placed in the microtitre plate-reader thermostated to 25°C. Beginning 5 minutes after addition of substrate, absorbance (405 nm) of wells is monitored for 1 hour, and activity is calculated as the mean rate of change in absorbance during this interval.

ICE [3] = molecular target: T1, ICE; test: ICE inhibition, Ki determination (fluorogenic substrate Ac-Tyr-Val-Ala-Asp-AMC); assay type: biochemical; conditions: 15 µM Ac-Tyr-Val-Ala-Asp-AMC, 0.5 nM enzyme, 30°C, reversible competitive model
Protocol: Serial dilutions of each compound of the invention are prepared using an initial 8-fold dilution of a DMSO stock into HGE (100 mM HEPES, 20% glycerol v/v, 0.5 mM EDTA), followed by seven serial 2-fold dilutions into HGE + 12.5% DMSO. Ten microliters of diluted stocks or of vehicle (HGE + 12.5% DMSO) are placed in triplicate onto a 96-well microtiter plate. Enzyme is diluted into assay buffer (HGE, 5 mM DTT, 15 µM Ac-Tyr-Val-Ala-Asp-AMC; 0.5 nM final enzyme concentration, pre-warmed to 30°C), and this reaction mixture is added to the plate at 90 µL/well. Substrate hydrolysis is monitored for 300 seconds at 30°C using 385 and 460 nm excitation and emission filters, respectively. Triplicate curves are averaged, and slopes are evaluated by linear regression. To evaluate Ki, plots of percent inhibition vs inhibitor concentration are fit by non-linear regression to a reversible, competitive model: [formula] where the competition factor is (1 + [S]/KM) = 2.

Ich-2 enzyme = molecular target: T2, Ich-2 enzyme (Homo sapiens, UniProt P49662); test: Ich-2 Colorimetric Dose-Response (IC50) Assay; assay type: biochemical; conditions: enzyme 64 nM, 60 µM Ac-Leu-Glu-Val-Asp-pNA; read-out: ICH2 IC50 (Caspase 4)
T2 sequence (P49662 81-270 limits assumed): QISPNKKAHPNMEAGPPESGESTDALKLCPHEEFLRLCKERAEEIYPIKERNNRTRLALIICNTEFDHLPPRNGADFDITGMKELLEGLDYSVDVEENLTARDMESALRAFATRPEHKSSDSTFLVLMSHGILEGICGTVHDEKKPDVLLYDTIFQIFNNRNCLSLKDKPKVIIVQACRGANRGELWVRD
T2 sequence (P49662 290-377 limits assumed): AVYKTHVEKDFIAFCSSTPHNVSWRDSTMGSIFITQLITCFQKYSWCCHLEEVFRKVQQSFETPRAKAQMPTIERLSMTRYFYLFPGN
Protocol: as §1, §2
Inhibition of Ich-2 enzyme is assayed as described above for ICE, except that enzyme is used at 64 nM, and 60 µM of the Ich-2-specific substrate Ac-Leu-Glu-Val-Asp-pNA is used instead of the ICE substrate Ac-Tyr-Val-Ala-Asp-pNA.

Row | SMILES | IC50 (ICE [2]) [nM] | Ki (ICE [3]) [nM] | IC50 (Ich-2 enzyme) [nM] | IC50 [1] [nM]
1 | CC(C)C(CC(=O)NCCc1c[nH]c2cc(F)ccc12)C(=O)NC(CC(=O)O)C(=O)CNS(=O)(=O)CC12CCC(CC1=O)C2(C)C (centres unmarked) [Example 20, 5-(7,7-Dimethyl-2-oxo-bicyclo[2.2.1]hept-1-ylmethanesulfonylamino)-3-(2-{[2-(6-fluoro-1H-indol-3-yl)-ethylcarbamoyl]-methyl}-3-methyl-butyrylamino)-4-oxo-pentanoic acid] | 11 | 1.5 | 62000 | 2450
2 | CC(C)C(CC(=O)N(C)CCc1cn(C)c2ccccc12)C(=O)NC(C=O)CC(=O)O (centres unmarked) [Example 21, 3-[3-Methyl-2-({methyl-[2-(1-methyl-1H-indol-3-yl)-ethyl]-carbamoyl}-methyl)-butyrylamino]-4-oxo-butyric acid] | 130 | 28 | 209000 | 7500
3 | CC(C)C(CC(=O)NCCCc1ccccc1)C(=O)NC(CC(=O)O)C(=O)CNS(=O)(=O)CC12CCC(CC1)C2(C)C (centres unmarked) [Example 24, 5-(7,7-Dimethyl-bicyclo[2.2.1]hept-1-ylmethanesulfonylamino)-3-{3-methyl-2-[(3-phenyl-propylcarbamoyl)-methyl]-butyrylamino}-4-oxo-pentanoic acid] | 360 | 20.7 | 8660 | 1600
4 | CC(C)[C@H](CC(=O)NCCc1cn(C)c2ccccc12)C(=O)NC(CC(=O)O)C(=O)CNS(=O)(=O)CC12CCC(CC1)C2(C)C (some centres unmarked) [Example 25] | 48.3 | 5.8 | 3540 | 1100
5 | CC(C)C(CC(=O)NCCCc1ccncc1)C(=O)NC(CC(=O)O)C(=O)CNS(=O)(=O)CC12CCC(CC1=O)C2(C)C (centres unmarked) [Example 26, 5-(7,7-Dimethyl-2-oxo-bicyclo[2.2.1]hept-1-ylmethanesulfonylamino)-3-{3-methyl-2-[(3-pyridin-4-yl-propylcarbamoyl)-methyl]-butyrylamino}-4-oxo-pentanoic acid] | 136 | 26.6 | 9910 | 2000
6 | CC(C)C(CC(=O)NCCCc1ccc2ccccc2n1)C(=O)NC(CC(=O)O)C(=O)CNS(=O)(=O)CC12CCC(CC1=O)C2(C)C (centres unmarked) [Example 27, 5-(7,7-Dimethyl-2-oxo-bicyclo[2.2.1]hept-1-ylmethanesulfonylamino)-3-{3-methyl-2-[(3-quinolin-2-yl-propylcarbamoyl)-methyl]-butyrylamino}-4-oxo-pentanoic acid] | 147 | 17.5 | 9930 | 1000
7 | CC(C)C(CC(=O)NCCn1cnc2ccccc21)C(=O)NC(CC(=O)O)C(=O)CNS(=O)(=O)CC12CCC(CC1=O)C2(C)C (centres unmarked) [Example 30, 3-{2-[(2-Benzoimidazol-1-yl-ethylcarbamoyl)-methyl]-3-methyl-butyrylamino}-5-(7,7-dimethyl-2-oxo-bicyclo[2.2.1]hept-1-ylmethanesulfonylamino)-4-oxo-pentanoic acid] | 5.2 | 1.1 | 3140 | 410
8 | CC(C)C(CC(=O)NCCc1cn(C)c2ccccc12)C(=O)NC(CC(=O)O)C(=O)CNS(=O)(=O)CC12CCC(CC1=O)C2(C)C (centres unmarked) [Example 31, 5-(7,7-Dimethyl-2-oxo-bicyclo[2.2.1]hept-1-ylmethanesulfonylamino)-3-(3-methyl-2-{[2-(1-methyl-1H-indol-3-yl)-ethylcarbamoyl]-methyl}-butyrylamino)-4-oxo-pentanoic acid] | 5.9 | 0.4 | 1240 | 240

Continued by falling IC50 (ICE [2]), values first:

Row | IC50 (ICE [2]) [nM] | Ki (ICE [3]) [nM] | IC50 (Ich-2 enzyme) [nM] | SMILES | IC50 [1] [nM]
9 | 458 | 26 | 14100 | CC(C)C(CC(=O)NCCc1ccncc1)C(=O)NC(CC(=O)O)C(=O)CNS(=O)(=O)CC12CCC(CC1=O)C2(C)C (centres unmarked) [Example 32, 5-(7,7-Dimethyl-2-oxo-bicyclo[2.2.1]hept-1-ylmethanesulfonylamino)-3-{3-methyl-2-[(2-pyridin-4-yl-ethylcarbamoyl)-methyl]-butyrylamino}-4-oxo-pentanoic acid] | 3300
10 | 254 | 6.1 | 5580 | CC(C)C(CC(=O)NCCCc1cccc2ccccc12)C(=O)NC(CC(=O)O)C(=O)CNS(=O)(=O)CC12CCC(CC1=O)C2(C)C (centres unmarked) [Example 28, 5-(7,7-Dimethyl-2-oxo-bicyclo[2.2.1]hept-1-ylmethanesulfonylamino)-3-{3-methyl-2-[(3-naphthalen-1-yl-propylcarbamoyl)-methyl]-butyrylamino}-4-oxo-pentanoic acid] | 550
11 | 113 | 24.5 | 4790 | CC(C)C(CC(=O)NCCCc1cccnc1)C(=O)NC(CC(=O)O)C(=O)CNS(=O)(=O)CC12CCC(CC1=O)C2(C)C (centres unmarked) [Example 29, 5-(7,7-Dimethyl-2-oxo-bicyclo[2.2.1]hept-1-ylmethanesulfonylamino)-3-{3-methyl-2-[(3-pyridin-3-yl-propylcarbamoyl)-methyl]-butyrylamino}-4-oxo-pentanoic acid] | 1900
12 | 23 | 6.5 | 3090 | CC(=O)c1ccc2[nH]cc(CCNC(=O)CC(C(=O)NC(CC(=O)O)C(=O)CNS(=O)(=O)CC34CCC(CC3=O)C4(C)C)C(C)C)c2c1 (centres unmarked) [Example 33, 3-(2-{[2-(5-Acetyl-1H-indol-3-yl)-ethylcarbamoyl]-methyl}-3-methyl-butyrylamino)-5-(7,7-dimethyl-2-oxo-bicyclo[2.2.1]hept-1-ylmethanesulfonylamino)-4-oxo-pentanoic acid] | 1600
13 | 14.5 | 2.9 | 4430 | Cc1cc2ncn(CCNC(=O)CC(C(=O)NC(C=O)CC(=O)O)C(C)C)c2cc1C (centres unmarked) [Example 23, 3-(2-{[2-(5,6-Dimethyl-benzoimidazol-1-yl)-ethylcarbamoyl]-methyl}-3-methyl-butyrylamino)-4-oxo-butyric acid, trifluoroacetate salt] | 3600
14 | 8.5 | 0.9 | 2380 | Cc1cccc2c(CCNC(=O)CC(C(=O)NC(CC(=O)O)C(=O)CNS(=O)(=O)CC34CCC(CC3=O)C4(C)C)C(C)C)c[nH]c12 (centres unmarked) [Example 19, 5-(7,7-Dimethyl-2-oxo-bicyclo[2.2.1]hept-1-ylmethanesulfonylamino)-3-(3-methyl-2-{(2-(7-methyl-1H-indol-3-yl)-ethylcarbamoyl]-methyl}-butyrylamino)-4-oxo-pentanoic acid] | 400
